Data published in patent US11124523B2, “2,6-dioxaspiro [4,5] decane derivatives and preparation method therefor and pharmaceutical applications thereof” (SHANDONG LUYE PHARMACEUTICAL CO., LTD., priority 2017, dated 2021).
Counter-ions that a name gives are not always drawn.

Experiments:
CYP3A4 = CYP3A4 (Homo sapiens (Human), UniProt P08684); test: Inhibition of cytochrome P450 isoenzymes, CYP3A4; assay type: in vitro ADME; conditions: >50 μM: inhibitory effect less than 50% at 50 μM; read-out: CYP 3A4 IC50
Procedure: 4.1 Experimental Purpose: To test the inhibitory effects of the compounds of the present disclosure on different isoforms of human cytochrome P450 isoenzymes
1) The activities of CYP1A2, 2C9, 2C19, 2D6, and 3A4 were measured using a standard substrate method. In each reaction, the enzyme activities were measured in the presence and absence of the substance to be tested, wherein a single sample was measured at a total of eight test concentrations. A 5-in-1 mixed inhibitor was used.
2) An incubation matrix comprising microsomes, a substrate, and an inhibitor or the compound to be tested was pre-incubated at 37° C. for 5 minutes, and then NADPH was added to start the reaction.
3) After the incubation, acetonitrile with an internal standard was added to stop the reaction.
4) Metabolites generated by the substrates were measured by using the LC-MS/MS method, and the peak area ratio of each metabolite to the internal standard was evaluated and the inhibition rate and IC50 were calculated.

hERG potassium channels = hERG potassium channels (Homo sapiens (Human), UniProt Q12809); test: Effects on hERG potassium channels (Qpatch, CHO-hERG cells); assay type: cell-based; conditions: highest test concentration 40 μM, read-out: IC50 representing the blocking effects of hERG potassium currents
Procedure: 5.1 Experimental Purpose: To test the blocking effects of the compounds of the present disclosure on hERG potassium currents.
a. CHO-hERG cells were cultured in a 175 cm^2 culture flask. When the cells were grown to a density of 60 to 80%, the culture solution was removed, and the cells were washed once with 7 mL of PBS (phosphate buffer solution), and then 3 mL of a cell digestion solution (Detachin) was added for digestion of the cells.
b. After completely digested, the cells were neutralized by adding 7 mL of the culture solution and then centrifuged, the supernatant was removed, and then 5 mL of the culture solution was added for resuspension to ensure a cell density of 2 to 5×10^6 cells/mL.
The single-cell high-impedance sealing and whole-cell pattern formation processes were both carried out automatically by the Qpatch instrument. After the whole-cell recording pattern was obtained, the cells were clamped at −80 millivolts. A preceding voltage of −50 millivolts was applied for 50 milliseconds prior to application of a depolarizing stimulus of +40 millivolts for 5 seconds, and then the cells were repolarized to −50 millivolts and maintained for 5 seconds and then returned back to −80 millivolts. This voltage stimulation was applied every 15 seconds, and data were recorded for 2 minutes, and thereafter the extracellular fluid was administered and data were recorded for 5 minutes, and then the administration process was started. The compound was administered for 2.5 minutes at each test concentration from the lowest test concentration. After all the concentrations of the compound were administered, […] of Cisapride was administered as a positive comparative compound. At least three cells (n>3) were tested for each concentration.
a. A 20 mM compound mother solution was diluted with the extracellular fluid, wherein 5 μL of the 20 mM compound mother solution was taken and diluted 500 times to 40 μM by adding 2495 μL of the extracellular fluid thereto, and then 3-fold serial dilutions were performed sequentially in the extracellular fluid containing 0.2% DMSO to obtain a final concentration to be tested.
b. The highest test concentration was 40 μM, and there were six concentrations in total, i.e., 40, 13.33, 4.44, 1.48, 0.49, and 0.16 μM, respectively.
c. The DMSO content in the final test concentration was not more than 0.2%. This concentration of DMSO had no effect on the hERG potassium channel.
The experimental data were analyzed by XLFit software.

[1] = Metabolic stability in liver microsomes; assay type: in vitro ADME; conditions: pH 7.4; human liver microsomes 0.5 mg protein/mL; 45 mg microsome protein/g liver, 20 g liver/kg; read-out: Intrinsic Clearance CLint(liver) in Human Liver
Procedure: Test 3: Metabolic Stability in Liver Microsomes
3.1 Experimental Purpose: To test the metabolic stability of the compounds of the present disclosure in human liver microsomes
a. All samples as well as testosterone, diclofenac and propafenone acting as reference substances were dissolved in DMSO to a storage concentration of 10 mM.
b. Intermediate Solution: 5 μL of the substance to be tested or the reference substance was diluted with 45 μL of DMSO (with 450 μL of 1:1 methanol/water).
c. Working Solution: the intermediate solution was diluted with 450 μL of 100 mM potassium phosphate buffer solution (pH 7.4).
Assay Buffer: 100 mM potassium phosphate buffer (pH 7.4) • 10 mM MgCl2
Liver Microsome Solution (final concentration: 0.5 mg protein/mL):
Human liver microsomes, obtained from BD, Cat No. 452117, Lot No. 38291
b. 10 μL of the working solution containing the substance to be tested or the reference substance was added to each of plates (T0, T5, T10, T20, T30, T60, NCF60).
c. The liver microsome solution was dispensed into a 96-well plate in an amount of 680 μL/well, then 80 was added, and then T was added to each of the plates. The above incubation plate was placed at 37° C. and pre-incubated for approximately 10 minutes.
d. 10 μL of 100 mM potassium phosphate buffer was added to each well in the NCF60 plate.
e. After the pre-incubation was finished, the NADPH regeneration system working solution was dispensed into the 96-well plate in an amount of 90 μL/well, and then added to each of the plates in an amount of 10 μL/well to start the reaction.
f. The plates were incubated for an appropriate time (e.g., 5, 10, 20, 30, or 60 minutes).
g. The stop solution (refrigerated at 4° C., containing 100 ng/mL Tolbutamide and 100 ng/mL Labetalol) was added to each sample well in an amount of 300 μL/well.
h. The sample plates were shaken well for about 10 minutes and centrifuged at 4,000 rpm for 20 minutes at 4° C. During the centrifugation, 300 μL of HPLC water was added to each well, and 100 μL of the supernatant was taken for LC-MS/MS analysis.
T1/2 and Clint(mic) were calculated by the following formula: […]
Each gram of liver contained 45 mg of microsome protein, and the liver weight was 20 g/kg in a human.
Ct was the concentration at time t, t was the incubation time, C0 was the concentration at time 0, Ke was an elimination rate constant, Clint(mic) was the intrinsic clearance in liver microsomes, and Clint(liver) was the intrinsic clearance in liver. CLint(mic)=0.693/half-life/mg of microsome protein per mL(concentration of microsomes during incubation) CLint(liver)=CLint(mic)×mg of microsome protein/g of liver weight×a ratio of liver weight to body weight 3.4 Test Results

[2] = published Phase 2 clinical trial data; compared to morphine; cited from earlier work

CYP3A4, sequence (P08684 whole entry, canonical isoform): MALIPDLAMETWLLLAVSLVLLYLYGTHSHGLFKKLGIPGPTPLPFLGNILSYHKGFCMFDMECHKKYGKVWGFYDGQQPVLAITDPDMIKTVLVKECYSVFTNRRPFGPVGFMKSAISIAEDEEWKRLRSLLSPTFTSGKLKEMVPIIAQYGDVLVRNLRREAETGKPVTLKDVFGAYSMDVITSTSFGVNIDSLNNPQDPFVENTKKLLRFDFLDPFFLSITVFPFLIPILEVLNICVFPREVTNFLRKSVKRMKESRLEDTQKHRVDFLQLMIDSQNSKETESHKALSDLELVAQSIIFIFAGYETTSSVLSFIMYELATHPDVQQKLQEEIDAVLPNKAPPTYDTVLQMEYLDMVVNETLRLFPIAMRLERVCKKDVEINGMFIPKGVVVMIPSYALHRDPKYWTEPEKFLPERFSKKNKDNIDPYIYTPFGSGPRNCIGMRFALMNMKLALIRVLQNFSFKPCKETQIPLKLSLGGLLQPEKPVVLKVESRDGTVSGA
hERG potassium channels, sequence (Q12809 whole entry): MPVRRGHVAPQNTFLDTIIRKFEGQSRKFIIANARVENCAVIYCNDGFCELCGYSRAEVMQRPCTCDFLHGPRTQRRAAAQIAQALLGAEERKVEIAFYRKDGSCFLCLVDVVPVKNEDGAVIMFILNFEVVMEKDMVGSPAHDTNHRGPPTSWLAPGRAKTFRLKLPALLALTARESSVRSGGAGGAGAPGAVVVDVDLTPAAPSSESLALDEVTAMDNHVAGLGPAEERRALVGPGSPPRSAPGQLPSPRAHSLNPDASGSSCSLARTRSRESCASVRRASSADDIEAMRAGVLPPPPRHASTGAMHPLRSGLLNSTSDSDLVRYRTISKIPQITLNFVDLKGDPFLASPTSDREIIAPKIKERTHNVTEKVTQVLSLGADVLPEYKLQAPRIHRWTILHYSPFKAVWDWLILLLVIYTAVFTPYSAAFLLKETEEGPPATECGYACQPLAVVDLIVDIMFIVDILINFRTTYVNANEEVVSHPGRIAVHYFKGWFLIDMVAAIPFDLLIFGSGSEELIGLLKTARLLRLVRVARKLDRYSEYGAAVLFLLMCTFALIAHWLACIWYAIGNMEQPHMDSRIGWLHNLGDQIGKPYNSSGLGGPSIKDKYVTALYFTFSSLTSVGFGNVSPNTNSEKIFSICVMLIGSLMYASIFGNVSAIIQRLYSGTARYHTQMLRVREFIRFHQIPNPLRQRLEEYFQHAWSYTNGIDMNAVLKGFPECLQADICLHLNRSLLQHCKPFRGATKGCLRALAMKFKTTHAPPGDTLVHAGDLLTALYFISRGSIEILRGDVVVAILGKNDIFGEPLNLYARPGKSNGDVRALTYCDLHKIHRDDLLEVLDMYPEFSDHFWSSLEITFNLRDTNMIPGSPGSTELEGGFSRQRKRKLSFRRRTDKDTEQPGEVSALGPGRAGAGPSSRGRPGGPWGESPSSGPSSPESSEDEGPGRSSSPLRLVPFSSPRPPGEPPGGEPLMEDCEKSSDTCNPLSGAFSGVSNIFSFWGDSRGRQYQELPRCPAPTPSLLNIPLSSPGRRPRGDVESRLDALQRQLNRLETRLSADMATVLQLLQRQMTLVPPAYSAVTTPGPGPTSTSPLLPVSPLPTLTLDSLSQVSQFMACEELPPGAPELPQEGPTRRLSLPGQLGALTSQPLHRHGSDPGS

Compound: c1ccc([C@]2(CCNCc3scc4c3CCC4)CCO[C@]3(CCOC3)C2)nc1 [(+)-2]
- IC50 (CYP3A4): > 50 µM
- IC50 (hERG potassium channels): > 40 µM
- CLint scaled [1]: 49 mL/min/kg

Compound: Fc1ccc([C@]2(CCNCc3cccc(Cl)c3)CCO[C@]3(CCOC3)C2)nc1 [(+)-16]
- IC50 (CYP3A4): 40.6 µM
- CLint scaled [1]: 29.2 mL/min/kg

Compound: Cc1cccc(CNCC[C@@]2(c3ccc(F)cn3)CCO[C@]3(CCOC3)C2)c1 [Hydrochloride Salt of (+)-22]
- IC50 (CYP3A4): > 50 µM
- IC50 (hERG potassium channels): 18.8 µM
- CLint scaled [1]: 13.5 mL/min/kg

Compound: Fc1ccc([C@]2(CCNCc3cccc(F)c3)CCO[C@]3(CCOC3)C2)nc1 [Hydrochloride Salt of (+)-23]
- IC50 (CYP3A4): > 50 µM
- CLint scaled [1]: 15.6 mL/min/kg

Compound: COc1ccsc1CNCC[C@@]1(c2ccccn2)CCOC2(CCCC2)C1 [compound 1, Oliceridine, reference compound]
- IC50 (hERG potassium channels): 5.5 µM
- CLint scaled [1]: 314 mL/min/kg
- side effects, Phase 2 clinical trial (in words) [2]: significant reduction in side effects compared to morphine
